Eleven compounds from ChEMBL document CHEMBL1201862, “PubChem BioAssay data set” (2004) can be followed below.

Among the test systems are DU-145; IGROV-1; SK-MEL-28; A498; NCI-H23; TK-10; SW-620; SF-295; OVCAR-5; U-251; OVCAR-3; SNB-19; UACC-62; HCT-15; PC-3; NCI-H226; A549; HCT-116; MDA-MB-435; MDA-N.
What all share (test): DTP human tumour cell line panel, 48 h

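Tested at 5 concentrations; 48 h exposure; 96-well plates; endpoints linearly interpolated, else capped at highest concentration. Abbreviation: GI50, concentration required for 50% inhibition of growth.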 Activity calls are given as the source filed them. No stated cut-off is given here; in the data, active = GI50 up to about 1.1 µM and inactive = higher.

What is called GI50 is the concentration that inhibits growth by half. As to `CCOn1cc(C[C@@]2(O)C(=O)OC3[C@@H](O)CO[C@@]32O)c2ccccc21` (stereo partly drawn), the GI50 in the assay on DU-145 was > 100 µM (inactive); in the assay with IGROV-1, > 100 µM (inactive); with SK-MEL-28, > 100 µM (inactive); in the assay with A498, 1.94 µM (inactive); in the assay on NCI-H23 it was > 100 µM (inactive); in the assay on TK-10, > 100 µM (inactive). The GI50 with SW-620, in the assay with SF-295, in the assay on OVCAR-5, with U-251, in the assay with OVCAR-3 and in the assay with SNB-19 was > 100 µM (inactive) in each case. The GI50 with UACC-62 was 46.7 µM (inactive); with HCT-15 it was above 100 µM; in the assay with PC-3, > 100 µM (inactive); in the assay on NCI-H226, > 100 µM (inactive); in the assay on A549, > 100 µM (inactive); in the assay on HCT-116, > 100 µM (inactive). The GI50 in the assay with MDA-MB-435 is > 100 µM (inactive).

Turning to `CC1(C)CC(=O)C2=C(C1)OC1=C(CC(C)(C)CC1=O)C2c1ccccc1Cl` (stereo not drawn), the GI50 with DU-145, in the assay with IGROV-1, in the assay on SK-MEL-28, with A498, with NCI-H23 and with SW-620 was > 100 µM (inactive) each time. Also, the GI50 with SF-295, in the assay on OVCAR-5, in the assay on U-251, in the assay on OVCAR-3, in the assay on SNB-19 and in the assay with UACC-62 was > 100 µM (inactive) each time. For the same compound, the GI50 in the assay on HCT-15 is above 100 µM; in the assay with PC-3 it was > 100 µM (inactive); in the assay on NCI-H226 it was > 100 µM (inactive); in the assay with A549, > 100 µM (inactive); with HCT-116, > 100 µM (inactive); in the assay with MDA-MB-435, > 100 µM (inactive).

Turning to `O=C(Nc1ccccc1)c1cc(S(=O)(=O)Nc2n[nH]c(=O)[nH]2)c(SSc2cc(Cl)c(C(=O)Nc3ccccc3)cc2S(=O)(=O)Nc2n[nH]c(=O)[nH]2)cc1Cl`, the GI50 with IGROV-1, with SK-MEL-28, with A498, in the assay on NCI-H23, in the assay on MDA-N and in the assay with TK-10 was > 100 µM (inactive) throughout. For the same compound, the GI50 with SW-620, in the assay on SF-295, in the assay with OVCAR-5, in the assay with U-251, in the assay on OVCAR-3 and in the assay on SNB-19 was > 100 µM (inactive) throughout. For the same compound, the GI50 in the assay with HCT-15 was above 100 µM; in the assay with PC-3 it was > 100 µM (inactive); with NCI-H226, > 100 µM (inactive); in the assay with A549 it was > 100 µM (inactive); with HCT-116, > 100 µM (inactive); in the assay with MDA-MB-435, > 100 µM (inactive).

Consider `NC1=CN2c3ccccc3N(CC(=O)O)C2C=C1` (stereo not drawn), for which the GI50 in the assay on DU-145, in the assay on IGROV-1, in the assay with SK-MEL-28, with A498, in the assay on NCI-H23 and in the assay on TK-10 was > 100 µM (inactive) each time. Moreover, the GI50 in the assay with SW-620, with SF-295, in the assay on OVCAR-5, in the assay on U-251, in the assay with OVCAR-3 and with SNB-19 was > 100 µM (inactive) throughout. Also, the GI50 in the assay with UACC-62 was > 100 µM (inactive); with HCT-15 it was above 100 µM; in the assay with PC-3, > 100 µM (inactive); with NCI-H226 it was > 100 µM (inactive); in the assay with A549, > 100 µM (inactive); with HCT-116 it was > 100 µM (inactive). Also, the GI50 in the assay on MDA-MB-435 is > 100 µM (inactive).

Regarding `COP(=O)(Cc1ccc(/C=C/C#N)o1)OC`, the GI50 in the assay with DU-145, with IGROV-1, in the assay on SK-MEL-28, in the assay on A498, in the assay with NCI-H23 and in the assay on TK-10 was > 100 µM (inactive) throughout. Also, the GI50 is > 10 µM (inactive) in the assay on SW-620; > 100 µM (inactive) with U-251; > 100 µM (inactive) in the assay with OVCAR-3; > 100 µM (inactive) in the assay on SNB-19; > 100 µM (inactive) in the assay with UACC-62; above 100 µM with HCT-15. In addition, the GI50 in the assay on NCI-H226, in the assay on A549, in the assay on HCT-116 and with MDA-MB-435 was > 100 µM (inactive) each time.

Turning to `N#CC(C(=O)/C(=N\NC(N)=O)C(C#N)c1ccccc1)c1ccccc1` (stereo not drawn), the GI50 in the assay with IGROV-1, in the assay on SK-MEL-28, in the assay on A498, with NCI-H23, with TK-10 and in the assay on SW-620 was > 100 µM (inactive) each time. Moreover, the GI50 in the assay on SF-295, in the assay on OVCAR-5, with U-251, in the assay on OVCAR-3, with SNB-19 and with UACC-62 was > 100 µM (inactive) each time. The GI50 with HCT-15 was above 100 µM; with NCI-H226, > 100 µM (inactive); in the assay with A549, > 100 µM (inactive); in the assay with HCT-116, > 100 µM (inactive).

Regarding `[N-]=[N+]=NC1=C(C(=O)c2ccccc2)C(=O)c2cccc3cccc1c23`, the GI50 in the assay with IGROV-1 was 10.1 µM (inactive); in the assay on SK-MEL-28, 66.7 µM (inactive); with NCI-H23, 51.3 µM (inactive); in the assay on MDA-N it was 64.3 µM (inactive); in the assay with TK-10, 21.9 µM (inactive); with SW-620 it was > 100 µM (inactive). The GI50 in the assay with SF-295 is 42.3 µM (inactive); in the assay with OVCAR-5, > 100 µM (inactive); in the assay with U-251, 21.2 µM (inactive); in the assay on OVCAR-3 it was 30.5 µM (inactive); in the assay with SNB-19, 28.1 µM (inactive); in the assay on UACC-62, 31.3 µM (inactive). Also, the GI50 in the assay on PC-3 is 49.2 µM (inactive); with NCI-H226, 36.4 µM (inactive); with A549, 45.2 µM (inactive); in the assay with HCT-116 it was 72.1 µM (inactive); in the assay on MDA-MB-435 it was 51.5 µM (inactive).

`NNc1nc2ccccc2c(=O)n1NC(=O)C(=O)Nc1cccc(C(F)(F)F)c1`: the GI50 was 47.6 µM (inactive) in the assay on IGROV-1; > 100 µM (inactive) in the assay on SK-MEL-28; > 100 µM (inactive) in the assay on A498; > 100 µM (inactive) in the assay on NCI-H23; > 100 µM (inactive) in the assay with MDA-N; > 100 µM (inactive) in the assay on TK-10. Further, the GI50 in the assay on SW-620, in the assay on SF-295, in the assay with OVCAR-5, in the assay with U-251, in the assay on OVCAR-3 and in the assay on SNB-19 was > 100 µM (inactive) in each case. Also, the GI50 with UACC-62 was > 100 µM (inactive); with HCT-15, above 100 µM; in the assay on PC-3, > 100 µM (inactive); in the assay on NCI-H226, > 100 µM (inactive); with A549, > 100 µM (inactive); in the assay on HCT-116, > 100 µM (inactive). For the same compound, the GI50 with MDA-MB-435 was > 100 µM (inactive).

On to `O=C(Cc1nc2ccc(C(=O)c3ccccc3)cc2nc1O)C(=O)Nc1ccc(Br)cc1`, for which the GI50 with IGROV-1 is > 100 µM (inactive); with SK-MEL-28 it was > 100 µM (inactive); with A498, > 100 µM (inactive); in the assay with NCI-H23, > 100 µM (inactive); in the assay on MDA-N, 39.7 µM (inactive); with TK-10, > 100 µM (inactive). The GI50 in the assay on SW-620, in the assay on SF-295, in the assay on OVCAR-5, in the assay on U-251, in the assay on OVCAR-3 and in the assay on UACC-62 was > 100 µM (inactive) in each case. In addition, the 50% growth inhibitory concentration (GI50) was 54.3 µM with HCT-15; 88.1 µM (inactive) in the assay on PC-3; 78.2 µM (inactive) in the assay on NCI-H226; > 100 µM (inactive) in the assay with A549; 75.3 µM (inactive) in the assay with HCT-116; 44.4 µM (inactive) with MDA-MB-435.

With `Cc1cc2nc3c(N)nn(CCCN(C)C)c3nc2cc1C`, the GI50 was > 100 µM (inactive) with DU-145; > 100 µM (inactive) with SK-MEL-28; > 100 µM (inactive) in the assay with A498; > 100 µM (inactive) with NCI-H23; 71.6 µM (inactive) with TK-10; 56.9 µM (inactive) in the assay on SW-620. The GI50 in the assay on SF-295 is > 100 µM (inactive); in the assay on OVCAR-5, > 100 µM (inactive); in the assay on U-251 it was 71.9 µM (inactive); in the assay with OVCAR-3, > 100 µM (inactive); in the assay on SNB-19 it was > 100 µM (inactive); in the assay with UACC-62, 95.7 µM (inactive). For the same compound, the GI50 with HCT-15 was above 100 µM; in the assay on PC-3, > 100 µM (inactive); in the assay on A549 it was > 100 µM (inactive); in the assay with HCT-116 it was 50.5 µM (inactive); in the assay with MDA-MB-435 it was 90.8 µM (inactive).

Consider `CC1=C2C(=O)C(C)(C)C=C2C(=O)[C@](C)(O)C12CC2` [DEHYDROILLUDIN M], for which the GI50 in the assay on IGROV-1 is > 1 µM (active); in the assay on SK-MEL-28, > 1 µM (active); in the assay on A498, > 1 µM (active); with NCI-H23, 0.499 µM (active); with TK-10, > 1 µM (active); in the assay on SW-620 it was > 1 µM (active). In addition, the GI50 is 0.585 µM (active) with SF-295; > 1 µM (active) in the assay on OVCAR-5; 0.484 µM (active) in the assay on U-251; > 1 µM (active) with OVCAR-3; > 1 µM (active) in the assay on SNB-19; 0.586 µM (active) in the assay on UACC-62. Also, the GI50 was 0.468 µM in the assay with HCT-15, > 1 µM (active) in the assay on NCI-H226, > 1 µM (active) with A549 and 0.265 µM (active) with HCT-116.
